These results are taken from US20250186437A1, “CARBOLINE COMPOUNDS AND USE THEREOF” (PTC Therapeutics, Inc., priority 2021, published 2025).

SMILES strings stand for the structures.

The test system of the experiment is MOLM-13 cells. As to the kind of experiment: MOLM-13 Cell Proliferation Assay (indicator of DHODH inhibition). The settings on record: Homo sapiens, 72 Hours of culture, CellTiter-Glo, no uridine. It counts as cell-based. A digest of the protocol: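 Proliferation readout via CellTiter-Glo luminescence after 72 h compound treatment (37 °C, 5% CO2, 0.5% DMSO) of MOLM-13 cells seeded at 10^4 per well in RPMI 1640/10% FBS, used as a DHODH-inhibition indicator since these cells rely on de novo pyrimidine synthesis.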
For orientation: In ATP-based viability assays light output follows the ATP content of the culture.
As a reminder, the IC50 is the concentration at which inhibition is half-maximal. Low readings indicate greater potency in that assay, high ones weaker potency in that assay. With `CN(C)c1ccc2[nH]c3c(c2c1)CCN(c1nccc(C(F)(F)F)n1)C3c1cnc(N2CCOCC2)nc1` (centres unmarked) [Compound 329, N,N-dimethyl-1-[2-(morpholin-4-yl)pyrimidin-5-yl]-2-[4-(trifluoromethyl)pyrimidin-2-yl]-2,3,4,9-tetrahydro-1H-pyrido[3,4-b]indol-6-amine], the IC50 was found to be 35.4 nM.

In turn, `Cc1nc(C)nc(N2CCc3c([nH]c4ccc(N(C)C)cc34)C2c2cnc(N3CCOCC3)nc2)n1` (centres unmarked) [Compound 331, 2-(4,6-dimethyl-1,3,5-triazin-2-yl)-N,N-dimethyl-1-[2-(morpholin-4-yl)pyrimidin-5-yl]-2,3,4,9-tetrahydro-1H-pyrido[3,4-b]indol-6-amine] returned an IC50 of 102 nM.

Molecule `Cc1ccc(C2c3[nH]c4ccc(Cl)cc4c3CCN2c2nccc(C)n2)cc1` (centres unmarked) [Compound 332, 6-chloro-1-(4-methylphenyl)-2-(4-methylpyrimidin-2-yl)-2,3,4,9-tetrahydro-1H-pyrido[3,4-b]indole] registered an IC50 of 11.8 nM.

In turn, `FC(F)c1ccnc(N2CCc3c([nH]c4ccc(Cl)cc34)C2c2cnc(N3CCOCC3)nc2)n1` (centres unmarked) [Compound 334, 6-chloro-2-[4-(difluoromethyl)pyrimidin-2-yl]-1-[2-(morpholin-4-yl)pyrimidin-5-yl]-2,3,4,9-tetrahydro-1H-pyrido[3,4-b]indole] came in with an IC50 of 13 nM.

With `FC(F)(F)c1ccnc(N2CCc3c([nH]c4ccc(Cl)cc34)C2c2cnc(N3CC4CC3CO4)nc2)n1` (centres unmarked) [Compound 335, 6-chloro-1-[2-(2-oxa-5-azabicyclo[2.2.1]heptan-5-yl)pyrimidin-5-yl]-2-[4-(trifluoromethyl)pyrimidin-2-yl]-2,3,4,9-tetrahydro-1H-pyrido[3,4-b]indole], the midpoint of inhibition, the IC50, lay at 7.6 nM.

Regarding `Cc1nc(C)nc(N2CCc3c([nH]c4ccc(Cl)cc34)C2c2cnc(N3CC4CC3CO4)nc2)n1` (centres unmarked) [Compound 336, 6-chloro-2-(4,6-dimethyl-1,3,5-triazin-2-yl)-1-[2-(2-oxa-5-azabicyclo[2.2.1]heptan-5-yl)pyrimidin-5-yl]-2,3,4,9-tetrahydro-1H-pyrido[3,4-b]indole], 52.2 nM corresponded to half-maximal inhibition (IC50).

Turning to `FC(F)(F)c1ccnc(N2CCc3c([nH]c4ccc(Cl)cc34)C2c2cnc(N3C4CCC3COC4)nc2)n1` (centres unmarked) [Compound 337, 6-chloro-1-[2-(3-oxa-8-azabicyclo[3.2.1]octan-8-yl)pyrimidin-5-yl]-2-[4-(trifluoromethyl)pyrimidin-2-yl]-2,3,4,9-tetrahydro-1H-pyrido[3,4-b]indole], the IC50 worked out at 8.2 nM.

Molecule `Cc1nc(C)nc(N2CCc3c([nH]c4ccc(Cl)cc34)C2c2cnc(N3C4CCC3COC4)nc2)n1` (centres unmarked) [Compound 338, 6-chloro-2-(4,6-dimethyl-1,3,5-triazin-2-yl)-1-[2-(3-oxa-8-azabicyclo[3.2.1]octan-8-yl)pyrimidin-5-yl]-2,3,4,9-tetrahydro-1H-pyrido[3,4-b]indole] showed an IC50 of 35 nM.

`Cc1nc(C)nc(N2CCc3c([nH]c4c(O)cc(Cl)cc34)C2c2ccc(N3CCOCC3)nc2)n1` (centres unmarked) [Compound 339, 6-chloro-2-(4,6-dimethyl-1,3,5-triazin-2-yl)-1-[6-(morpholin-4-yl)pyridin-3-yl]-2,3,4,9-tetrahydro-1H-pyrido[3,4-b]indol-8-ol]: the IC50 was 13.5 nM.

With `Fc1ccccc1C1c2[nH]c3ccc(Cl)cc3c2CCN1c1nccc(C(F)(F)F)n1` (centres unmarked) [Compound 341, 6-chloro-1-(2-fluorophenyl)-2-[4-(trifluoromethyl)pyrimidin-2-yl]-2,3,4,9-tetrahydro-1H-pyrido[3,4-b]indole], half-maximal inhibition (IC50) was put at 6.8 nM.

Regarding `Cc1cc(C)nc(N2CCc3c([nH]c4ccc(Cl)cc34)C2c2ccc(C)c(F)c2F)n1` (centres unmarked) [Compound 342, 6-chloro-1-(2,3-difluoro-4-methylphenyl)-2-(4,6-dimethylpyrimidin-2-yl)-2,3,4,9-tetrahydro-1H-pyrido[3,4-b]indole], the IC50 is 1 nM.
